The values that follow come from ChEMBL document CHEMBL3608209, “N-Aryl benzenesulfonamide inhibitors of [3H]-thymidine incorporation and β-catenin signaling in human hepatocyte-derived Huh-7 carcinoma cells” (Bioorg Med Chem Lett, 2015).

For assay [1], the system named is Huh-7. Put plainly: Inhibition of Wnt/beta catenin in human HuH7 cells assessed as [3H]-thymidine incorporation at 10 uM by scintillation counting analysis relative to DMSO-treated control. The format is cell-based. A general note: Dividing cells build labelled thymidine or BrdU into new DNA.
The subject of assay [2] is Huh-7. Put plainly: Inhibition of Wnt/beta catenin in human HuH7 cells assessed as [3H]-thymidine incorporation at 10 uM by scintillation counting analysis relative to FH535. The assay is classed as cell-based.
Assay [3] has as its system Huh-7. Put plainly: Inhibition of Wnt/beta catenin in human HuH7 cells assessed as [3H]-thymidine incorporation at 10 uM by scintillation counting analysis relative to DMSO-treated control; values are per cent of control.
Assay [4] deals with Huh-7. Put plainly: Inhibition of Wnt/beta catenin in human HuH7 cells assessed as decrease in TCF/LEF-dependent promoter activation at 10 uM after 36 hrs by TOPFlash luciferase reporter gene assay relative to control. The assay is classed as cell-based. (In general: A reporter such as luciferase makes a cellular process visible.)

In the case of `COC(=O)c1ccc(NS(=O)(=O)c2cc(Cl)ccc2Cl)c(C)c1`, the inhibition – broadly, how much of the control response was suppressed – with Huh-7 [1] worked out at 18%. Further, the fold change (FC) in the assay with Huh-7 [2] worked out at 0.5. Further, the level, % of control in the assay on Huh-7 [3] worked out at 82%.
As to `O=[N+]([O-])c1ccc(NS(=O)(=O)c2cc(Cl)ccc2Cl)c2ccccc12`, the inhibition in the assay on Huh-7 [1] was found to be 48%. Also, the fold change (FC) with Huh-7 [2] stood at 1.3. Moreover, the level, % of control with Huh-7 [3] stood at 52%.
As for `O=S(=O)(Nc1ccccc1Oc1ccccc1)c1c(F)cccc1F`, the inhibition in the assay with Huh-7 [1] was determined as 34%. Besides, in the assay with Huh-7 [2], the fold change (FC) is 0.9. Besides, the level, % of control in the assay with Huh-7 [3] was determined as 66%.
The like results for `Cc1cc(CO)ccc1NS(=O)(=O)c1c(F)cccc1F` were, in that order, 38%, 1.1 and 62%.
On to `O=C(c1ccccc1)c1ccc(NS(=O)(=O)c2c(F)cccc2F)cc1`, for which the inhibition in the assay with Huh-7 [1] came out at 33%. Further, the fold change (FC) in the assay on Huh-7 [2] stood at 0.9. For the same compound, the level, % of control in the assay on Huh-7 [3] amounted to 67%.
Regarding `O=[N+]([O-])c1ccc(NS(=O)(=O)c2ccccc2)c2ccccc12`, the inhibition came out at 42% in the assay on Huh-7 [1] and 72% with Huh-7 [4]. Moreover, in the assay on Huh-7 [2], the fold change (FC) stood at 1.2. Further, the level, % of control in the assay with Huh-7 [3] was 58%.
`O=S(=O)(Nc1cccc(OCc2ccccc2)c1)c1c(F)cccc1F`: the inhibition with Huh-7 [1] came out at 43%. Besides, the fold change (FC) with Huh-7 [2] stood at 1.2. The level, % of control in the assay with Huh-7 [3] was 57%.
The like results for `COC(=O)c1cc(Cl)ccc1NS(=O)(=O)c1cc(Cl)ccc1Cl` were, in that order, 0%, 0 and 106%.
Turning to `O=C(c1ccccc1)c1ccc(NS(=O)(=O)c2ccccc2)cc1`, the inhibition with Huh-7 [1] was 38%; with Huh-7 [4], 46%. Besides, the fold change (FC) with Huh-7 [2] turned out to be 1.1. Moreover, the level, % of control in the assay on Huh-7 [3] turned out to be 62%.
Turning to `Cc1cc(CO)ccc1NS(=O)(=O)c1c(Cl)cccc1Cl`, the inhibition was 73% in the assay with Huh-7 [1] and 13% with Huh-7 [4]. Besides, in the assay with Huh-7 [2], the fold change (FC) was 2. In addition, the level, % of control in the assay on Huh-7 [3] came to 27%.
On to `Cc1cc(CO)ccc1NS(=O)(=O)c1ccccc1`, for which the inhibition in the assay with Huh-7 [1] is 53%. For the same compound, the fold change (FC) in the assay on Huh-7 [2] stood at 1.5. Also, the level, % of control in the assay on Huh-7 [3] came to 47%.
Taken in the same sequence, the figures for `Cc1cc(CO)ccc1NS(=O)(=O)c1cc(Cl)ccc1Cl` were 67%, 1.9 and 33%.
`O=[N+]([O-])c1ccc(NS(=O)(=O)c2c(Cl)cccc2Cl)c2ccccc12`: the inhibition in the assay on Huh-7 [1] is 26%; in the assay on Huh-7 [4] it was 47%. For the same compound, the fold change (FC) in the assay on Huh-7 [2] was found to be 0.7. Further, the level, % of control in the assay on Huh-7 [3] stood at 74%.
The like results for `COC(=O)c1cc(F)ccc1NS(=O)(=O)c1cc(Cl)ccc1Cl` were, in that order, 7%, 61%, 0.2 and 93%.
In the case of `COC(=O)c1ccc(NS(=O)(=O)c2c(Cl)cccc2Cl)c(C)c1`, the inhibition with Huh-7 [1] was 29%. In addition, the fold change (FC) in the assay on Huh-7 [2] amounted to 0.8. The level, % of control in the assay with Huh-7 [3] stood at 71%.
As to `O=S(=O)(Nc1ccccc1Oc1ccccc1)c1c(Cl)cccc1Cl`, the values for the inhibition in the assay with Huh-7 [1] and in the assay on Huh-7 [4] were 38% and 45%, respectively. Besides, in the assay with Huh-7 [2], the fold change (FC) turned out to be 1.1. In the assay with Huh-7 [3], the level, % of control turned out to be 62%.
For the compound `O=[N+]([O-])c1ccc(NS(=O)(=O)c2cc(F)ccc2F)c2ccccc12`, the inhibition in the assay with Huh-7 [1] is 31%; with Huh-7 [4] it was 64%. Besides, in the assay on Huh-7 [2], the fold change (FC) stood at 0.9. Besides, the level, % of control with Huh-7 [3] is 69%.
`Cc1cc([N+](=O)[O-])ccc1NS(=O)(=O)c1cc(Cl)ccc1Cl`: the figures for the inhibition in the assay on Huh-7 [1] and in the assay on Huh-7 [4] were 36% and 73%, respectively. Further, in the assay on Huh-7 [3], the level, % of control was 64%.
As to `O=S(=O)(Nc1cccc(OCc2ccccc2)c1)c1ccccc1`, the inhibition in the assay with Huh-7 [1] was found to be 29%. Moreover, in the assay with Huh-7 [2], the fold change (FC) was 0.8. For the same compound, the level, % of control with Huh-7 [3] came to 71%.
For `O=S(=O)(Nc1cccc(OCc2ccccc2)c1)c1c(Cl)cccc1Cl`, the results for the inhibition in the assay on Huh-7 [1] and with Huh-7 [4] were 31% and 53%, respectively. In the assay on Huh-7 [2], the fold change (FC) was determined as 0.9. Besides, the level, % of control in the assay on Huh-7 [3] is 69%.
For `O=C(c1ccccc1)c1ccc(NS(=O)(=O)c2c(Cl)cccc2Cl)cc1`, the inhibition with Huh-7 [1] worked out at 33%. In addition, the fold change (FC) with Huh-7 [2] amounted to 0.9. Besides, the level, % of control with Huh-7 [3] came out at 67%.
